Experimental data: ChEMBL document CHEMBL5528088, “Design and Synthesis of Cyclolipopeptide Mimics of Dysoxylactam A and Evaluation of the Reversing Potencies against P-Glycoprotein-Mediated Multidrug Resistance” (J Med Chem, 2024)
The source made the active and inactive calls. No cut-off for these calls is given here.

Key:
[1] = target: Multidrug resistance-associated protein 1 (Homo sapiens, UniProt P33527); assay: Inhibition of MRP1 (unknown origin) expressed in HEK293 cells assessed as increase in mitoxantrone accumulation by flow cytometry; type: cell-based
[2] = system: KBv200; assay: Inhibition of calcein AM uptake in human KBv200 cells at 10 uM incubated for 10 mins by flow cytometry; type: functional, cell-based
[3] = system: KBv200; assay: Inhibition of ADR efflux in human KBv200 cells incubated for 3 hrs by fluorescence microscopy; type: functional, cell-based
[4] = system: KBv200; assay: Effect on P-gp level in human KBv200 cells incubated for 24 hrs by qRT-PCR analysis; type: functional, cell-based
[5] = system: KBv200; assay: Reversal fold, ratio of ADR IC50 to ADR IC50 in presence of test compound for reversal effect on P-gp-mediated multidrug resistance in human KBv200 cells incubated for 72 hrs by SRB assay; type: functional
[6] = system: KBv200; assay: Inhibition of cell proliferation in human KBv200 cells assessed as inhibition of VNR at 10 uM incubated for 72 hrs in presence of VNR by SRB assay relative to control; type: functional
[7] = system: KBv200; assay: Inhibition of ADR uptake in human KBv200 cells at 10 uM incubated for 10 mins by flow cytometry; type: functional, cell-based
[8] = system: KBv200; assay: Cytotoxicity against human KBv200 cells at 10 uM incubated for 72 hrs by SRB assay relative to control; type: functional
[9] = Inhibition of ADR uptake in human KBv200 cells assessed as ADR accumulation at 10 uM incubated for 10 mins by flow cytometry (reference value: 6.2 %); type: functional; parameters: scale not given: the % may be the effect or the level left
[10] = system: NCI/ADR-RES; assay: Reversal fold, ratio of VNR IC50 to VNR IC50 in presence of test compound for reversal effect on P-gp-mediated multidrug resistance in human NCI/ADR-RES cells incubated for 72 hrs by SRB assay; type: functional
[11] = system: KBv200; assay: Reversal fold, ratio of PTX IC50 to PTX IC50 in presence of test compound for reversal effect on P-gp-mediated multidrug resistance in human KBv200 cells incubated for 72 hrs by SRB assay; type: functional
[12] = system: NCI/ADR-RES; assay: Reversal fold, ratio of PTX IC50 to PTX IC50 in presence of test compound for reversal effect on P-gp-mediated multidrug resistance in human NCI/ADR-RES cells incubated for 72 hrs by SRB assay; type: functional
[13] = Inhibition of ADR efflux in human KBv200 cells assessed as ADR accumulation at 1 uM incubated for 3 hrs by flow cytometry (reference value: 25.7 %); type: functional; parameters: scale not given: the % may be the effect or the level left
[14] = Inhibition of ADR uptake in human KBv200 cells assessed as ADR accumulation at 1 uM incubated for 10 mins by flow cytometry (reference value: 6.2 %); type: functional; parameters: scale not given: the % may be the effect or the level left
[15] = system: KBv200; assay: Inhibition of ADR uptake in human KBv200 cells at 10 uM incubated for 10 mins by fluorescence microscopy; type: functional, cell-based
[16] = system: KBv200; assay: Inhibition of Rho-123 uptake in human KBv200 cells at 10 uM incubated for 10 mins by flow cytometry; type: functional, cell-based
[17] = system: NCI/ADR-RES; assay: Reversal fold, ratio of ADR IC50 to ADR IC50 in presence of test compound for reversal effect on P-gp-mediated multidrug resistance in human NCI/ADR-RES cells incubated for 72 hrs by SRB assay; type: functional
[18] = system: KBv200; assay: Reversal fold, ratio of VNR IC50 to VNR IC50 in presence of test compound for reversal effect on P-gp-mediated multidrug resistance in human KBv200 cells incubated for 72 hrs by SRB assay; type: functional
[19] = target: T1, Broad substrate specificity ATP-binding cassette transporter ABCG2 (Homo sapiens, UniProt Q9UNQ0); assay: Inhibition of BCRP (unknown origin) expressed in HEK293 cells assessed as increase in mitoxantrone accumulation by flow cytometry; type: cell-based
T1 sequence (Q9UNQ0 whole entry): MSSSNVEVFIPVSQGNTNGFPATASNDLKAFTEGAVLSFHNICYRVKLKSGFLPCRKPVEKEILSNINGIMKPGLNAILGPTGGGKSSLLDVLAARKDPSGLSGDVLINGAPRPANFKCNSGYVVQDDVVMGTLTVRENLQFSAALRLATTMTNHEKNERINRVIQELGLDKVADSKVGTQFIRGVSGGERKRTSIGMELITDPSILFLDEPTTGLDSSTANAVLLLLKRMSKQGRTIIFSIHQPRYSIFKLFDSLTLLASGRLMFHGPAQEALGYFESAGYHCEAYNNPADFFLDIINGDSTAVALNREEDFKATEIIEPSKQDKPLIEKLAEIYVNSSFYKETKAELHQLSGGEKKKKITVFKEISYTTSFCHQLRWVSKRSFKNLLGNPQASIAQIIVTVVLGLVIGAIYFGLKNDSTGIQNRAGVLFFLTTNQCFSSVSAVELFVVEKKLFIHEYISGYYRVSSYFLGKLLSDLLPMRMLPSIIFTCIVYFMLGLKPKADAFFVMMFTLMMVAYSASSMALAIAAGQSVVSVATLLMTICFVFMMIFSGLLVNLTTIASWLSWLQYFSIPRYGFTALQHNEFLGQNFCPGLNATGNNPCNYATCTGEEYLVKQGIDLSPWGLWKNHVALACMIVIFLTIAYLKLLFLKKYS

[20] = system: KBv200; assay: Reversal fold, ratio of VNR IC50 to VNR IC50 in presence of test compound for human KBv200 cells incubated for 72 hrs by SRB assay; type: functional
[21] = Inhibition of ADR efflux in human KBv200 cells assessed as ADR accumulation at 10 uM incubated for 3 hrs by flow cytometry (reference value: 25.7 %); type: functional; parameters: scale not given: the % may be the effect or the level left

Chain of Multidrug resistance-associated protein 1 (P33527 whole entry): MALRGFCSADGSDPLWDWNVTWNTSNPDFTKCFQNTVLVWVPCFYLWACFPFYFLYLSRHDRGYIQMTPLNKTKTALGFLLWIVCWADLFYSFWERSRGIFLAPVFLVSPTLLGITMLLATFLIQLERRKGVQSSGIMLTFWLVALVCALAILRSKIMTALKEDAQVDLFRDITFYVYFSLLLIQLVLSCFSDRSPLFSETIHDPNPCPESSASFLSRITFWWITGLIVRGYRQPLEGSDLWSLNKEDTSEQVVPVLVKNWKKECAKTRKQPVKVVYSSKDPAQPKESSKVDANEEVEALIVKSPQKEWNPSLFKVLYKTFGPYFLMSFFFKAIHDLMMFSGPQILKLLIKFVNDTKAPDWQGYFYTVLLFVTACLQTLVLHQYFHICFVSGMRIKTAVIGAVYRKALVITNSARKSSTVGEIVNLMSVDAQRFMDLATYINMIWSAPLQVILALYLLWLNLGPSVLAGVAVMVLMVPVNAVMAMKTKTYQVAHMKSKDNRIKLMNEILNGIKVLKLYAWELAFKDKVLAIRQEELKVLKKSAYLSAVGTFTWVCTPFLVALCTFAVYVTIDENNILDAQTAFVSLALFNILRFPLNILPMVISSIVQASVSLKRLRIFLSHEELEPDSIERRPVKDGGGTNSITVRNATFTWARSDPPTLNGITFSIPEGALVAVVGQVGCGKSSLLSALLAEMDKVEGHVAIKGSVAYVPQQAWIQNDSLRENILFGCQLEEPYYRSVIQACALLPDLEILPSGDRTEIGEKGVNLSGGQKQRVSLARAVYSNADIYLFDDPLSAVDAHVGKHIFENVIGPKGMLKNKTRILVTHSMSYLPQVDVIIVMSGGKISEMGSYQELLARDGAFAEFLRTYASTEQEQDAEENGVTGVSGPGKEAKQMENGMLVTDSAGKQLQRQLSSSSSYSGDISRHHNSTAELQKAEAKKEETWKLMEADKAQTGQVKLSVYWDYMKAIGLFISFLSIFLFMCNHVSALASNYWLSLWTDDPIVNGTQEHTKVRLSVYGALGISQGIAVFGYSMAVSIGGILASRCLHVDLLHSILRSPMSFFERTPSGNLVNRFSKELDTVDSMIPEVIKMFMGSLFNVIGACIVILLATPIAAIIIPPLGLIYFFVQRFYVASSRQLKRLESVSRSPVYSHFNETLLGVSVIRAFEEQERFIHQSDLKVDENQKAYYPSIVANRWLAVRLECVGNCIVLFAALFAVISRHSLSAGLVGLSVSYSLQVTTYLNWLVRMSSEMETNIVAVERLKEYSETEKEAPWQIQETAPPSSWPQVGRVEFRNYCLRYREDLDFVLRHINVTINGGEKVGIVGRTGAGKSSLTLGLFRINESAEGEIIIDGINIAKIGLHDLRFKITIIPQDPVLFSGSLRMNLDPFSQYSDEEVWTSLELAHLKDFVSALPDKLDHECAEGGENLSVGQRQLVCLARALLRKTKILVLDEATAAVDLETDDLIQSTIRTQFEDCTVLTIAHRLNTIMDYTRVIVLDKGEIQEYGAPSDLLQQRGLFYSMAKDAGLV

With `CC[C@H](C)C1OC(=O)[C@H](C(C)C)NC(=O)CCCCCCC[C@H](O)[C@@H](C)C[C@@H]1C` (stereo partly specified) the “inhibition (INH)” value [1] was “Active”, the inhibition [2] was “Active” and the inhibition [3] was “Active”. The Activity [4] was “inactive”, the “Ratio IC50” value [5] was 12.4 and the inhibition at 10 µM [6] was 99.5%. The inhibition [7] was “inactive”, the Activity [8] was 9.7% and the Activity [9] was 91.7%. The “Ratio IC50” value [10] was 65.3, the “Ratio IC50” value [11] was 49.6 and the “Ratio IC50” value [12] was 109.2. The Activity [13] was 29%, the Activity [14] was 7.4% and the inhibition [15] was “inactive”. For the same compound, the inhibition [16] was “Active”, the “Ratio IC50” value [17] was 23.9 and the “Ratio IC50” value [18] was 64. The “inhibition (INH)” value [19] was “Active”, the “Ratio IC50” value [20] was 85 and the Activity [21] was 90.6%.
